Measurements reported in the supplement of paper PMC13380429.

How the values were obtained:
Conditions in all cases: 72 h
[1] = test system: Caco-2; assay: cell viability relative to DMSO; higher = less toxic
[2] = test system: Calu-3; assay: as above
[3] = test system: HepG2; assay: as above
[4] = test system: U2OS; assay: as above
[5] = test system: Vero E6; assay: as above
[6] = test system: Caco-2; assay: relative viability EC50 (midpoint between 100% and the lowest measured viability); higher = less toxic
[7] = test system: Calu-3; assay: as above
[8] = test system: HepG2; assay: as above
[9] = test system: U2OS; assay: as above
[10] = test system: Vero E6; assay: as above
[11] = test system: Caco-2; assay: drug sensitivity score (DSS) for viability; higher = more toxic; extreme values may be limits of the assay
[12] = test system: Calu-3; assay: as above
[13] = test system: HepG2; assay: as above
[14] = test system: U2OS; assay: as above
[15] = test system: Vero E6; assay: as above

SMILES | cell viability ([1]; 1 nM) [%] | cell viability ([1]; 10 nM) [%] | cell viability ([1]; 100 nM) [%] | cell viability ([1]; 1000 nM) [%] | cell viability ([1]; 10000 nM) [%] | cell viability ([2]; 1 nM) [%] | cell viability ([2]; 10 nM) [%] | cell viability ([2]; 100 nM) [%] | cell viability ([2]; 1000 nM) [%] | cell viability ([2]; 10000 nM) [%] | cell viability ([3]; 1 nM) [%] | cell viability ([3]; 10 nM) [%] | cell viability ([3]; 100 nM) [%] | cell viability ([3]; 1000 nM) [%] | cell viability ([3]; 10000 nM) [%] | cell viability ([4]; 1 nM) [%] | cell viability ([4]; 10 nM) [%] | cell viability ([4]; 100 nM) [%] | cell viability ([4]; 1000 nM) [%] | cell viability ([4]; 10000 nM) [%] | cell viability ([5]; 1 nM) [%] | cell viability ([5]; 10 nM) [%] | cell viability ([5]; 100 nM) [%] | cell viability ([5]; 1000 nM) [%] | cell viability ([5]; 10000 nM) [%] | relative viability EC50 [6] [µM] | relative viability EC50 [7] [µM] | relative viability EC50 [8] [µM] | relative viability EC50 [9] [µM] | relative viability EC50 [10] [µM] | drug sensitivity score [11] | drug sensitivity score [12] | drug sensitivity score [13] | drug sensitivity score [14] | drug sensitivity score [15]
Oc1cc(O)c2c(c1)O[C@H](c1ccc(O)c(O)c1)[C@H](O)[C@H]2c1c(O)cc(O)c2c1O[C@H](c1ccc(O)c(O)c1)[C@H](O)C2 [procyanidin-B-2] | 106 | 102 | 102 | 98.7 | 105 | 112 | 95.6 | 100 | 93.1 | 109 | 98.5 | 100 | 96.8 | 99.3 | 94.7 | 103 | 99.9 | 106 | 99.5 | 104 | 97 | 98.2 | 91.8 | 101 | 93.4 | > 10 | > 10 | > 10 | > 10 | > 10 | 0 | 0 | 0 | 0 | 0
CC(C)(COP(=O)(O)OP(=O)(O)OC[C@H]1O[C@@H](n2cnc3c(N)ncnc32)[C@H](O)[C@@H]1OP(=O)(O)O)[C@@H](O)C(=O)NCCC(=O)NCCS [coenzyme-A] | 100 | 100 | 102 | 97.8 | 110 | 100 | 101 | 96.7 | 99.8 | 102 | 109 | 96.6 | 111 | 96 | 98.4 | 96.9 | 100 | 103 | 103 | 104 | 108 | 102 | 92.4 | 104 | 98.9 | > 10 | > 10 | > 10 | > 10 | > 10 | 0 | 0 | 0 | 0 | 0
CCCCn1c(-c2ccccc2)nc(-c2ccccc2)c1CN(Cc1ccc2c(c1)OCO2)Cc1ccc2c(c1)OCO2 | 94.2 | 105 | 95.1 | 92.7 | 77.5 | 107 | 102 | 107 | 101 | 96.7 | 102 | 102 | 96.3 | 95.5 | 89.4 | 95.8 | 97.6 | 91.4 | 94 | 85.6 | 106 | 101 | 100 | 101 | 97.7 | > 10 | > 10 | > 10 | > 10 | > 10 | 1.2 | 0 | 0 | 0.2 | 0
Cc1cc(C)c(CNC(=O)c2cc(-c3ccc(N4CCN(C)CC4)nc3)cc3c2c(C)cn3C(C)C)c(=O)[nH]1 [GSK503] | 98.8 | 104 | 93.7 | 105 | 102 | 88.3 | 85.3 | 92.9 | 109 | 104 | 92.6 | 112 | 99.7 | 94.4 | 87.2 | 104 | 98.6 | 104 | 101 | 102 | 101 | 104 | 105 | 98.6 | 102 | > 10 | > 10 | > 10 | > 10 | > 10 | 0 | 0 | 0.4 | 0 | 0
